Measurements taken from ChEMBL document CHEMBL4831500, “Discovery of first-in-class imidazothiazole-based potent and selective ErbB4 (HER4) kinase inhibitors” (Eur J Med Chem, 2021).

How the values were obtained:
[1] = molecular target: Vascular endothelial growth factor receptor 2 (Homo sapiens, UniProt P35968); experiment: Inhibition of KDR (unknown origin) at 10 uM incubated for 40 mins in presence of Mg/ATP mix by [gamma p33]-ATP based scintillation counting method relative to control
[2] = molecular target: Serine/threonine-protein kinase B-raf (Homo sapiens, UniProt P15056, V600E); experiment: Inhibition of BRAF V600E mutant (unknown origin) incubated for 40 mins in presence of Mg/ATP mix by [gamma p33]-ATP based scintillation counting method
T47D = experiment: Antiproliferative activity against human T47D cells assessed as cell growth inhibition measured after 48 hrs by SRB assay; type: functional, cell-based
U-251 [3] = experiment: Antiproliferative activity against human U-251 cells assessed as cell growth inhibition measured after 48 hrs by SRB assay; type: functional, cell-based; settings: U-251, 48 h
DU-145 = experiment: Antiproliferative activity against human DU-145 cells assessed as cell growth inhibition measured after 48 hrs by SRB assay; type: functional, cell-based; settings: DU-145, 48 h
[4] = molecular target: Fibroblast growth factor receptor 1 (Homo sapiens) (UniProt P11362); experiment: Inhibition of FGFR1 (unknown origin) at 10 uM incubated for 40 mins in presence of Mg/ATP mix by [gamma p33]-ATP based scintillation counting method relative to control
[5] = molecular target: T1, Epidermal growth factor receptor (Homo sapiens, UniProt P00533); experiment: Inhibition of EGFR (unknown origin) incubated for 40 mins in presence of Mg/ATP mix by [gamma p33]-ATP based scintillation counting method
T1 sequence (P00533 whole entry): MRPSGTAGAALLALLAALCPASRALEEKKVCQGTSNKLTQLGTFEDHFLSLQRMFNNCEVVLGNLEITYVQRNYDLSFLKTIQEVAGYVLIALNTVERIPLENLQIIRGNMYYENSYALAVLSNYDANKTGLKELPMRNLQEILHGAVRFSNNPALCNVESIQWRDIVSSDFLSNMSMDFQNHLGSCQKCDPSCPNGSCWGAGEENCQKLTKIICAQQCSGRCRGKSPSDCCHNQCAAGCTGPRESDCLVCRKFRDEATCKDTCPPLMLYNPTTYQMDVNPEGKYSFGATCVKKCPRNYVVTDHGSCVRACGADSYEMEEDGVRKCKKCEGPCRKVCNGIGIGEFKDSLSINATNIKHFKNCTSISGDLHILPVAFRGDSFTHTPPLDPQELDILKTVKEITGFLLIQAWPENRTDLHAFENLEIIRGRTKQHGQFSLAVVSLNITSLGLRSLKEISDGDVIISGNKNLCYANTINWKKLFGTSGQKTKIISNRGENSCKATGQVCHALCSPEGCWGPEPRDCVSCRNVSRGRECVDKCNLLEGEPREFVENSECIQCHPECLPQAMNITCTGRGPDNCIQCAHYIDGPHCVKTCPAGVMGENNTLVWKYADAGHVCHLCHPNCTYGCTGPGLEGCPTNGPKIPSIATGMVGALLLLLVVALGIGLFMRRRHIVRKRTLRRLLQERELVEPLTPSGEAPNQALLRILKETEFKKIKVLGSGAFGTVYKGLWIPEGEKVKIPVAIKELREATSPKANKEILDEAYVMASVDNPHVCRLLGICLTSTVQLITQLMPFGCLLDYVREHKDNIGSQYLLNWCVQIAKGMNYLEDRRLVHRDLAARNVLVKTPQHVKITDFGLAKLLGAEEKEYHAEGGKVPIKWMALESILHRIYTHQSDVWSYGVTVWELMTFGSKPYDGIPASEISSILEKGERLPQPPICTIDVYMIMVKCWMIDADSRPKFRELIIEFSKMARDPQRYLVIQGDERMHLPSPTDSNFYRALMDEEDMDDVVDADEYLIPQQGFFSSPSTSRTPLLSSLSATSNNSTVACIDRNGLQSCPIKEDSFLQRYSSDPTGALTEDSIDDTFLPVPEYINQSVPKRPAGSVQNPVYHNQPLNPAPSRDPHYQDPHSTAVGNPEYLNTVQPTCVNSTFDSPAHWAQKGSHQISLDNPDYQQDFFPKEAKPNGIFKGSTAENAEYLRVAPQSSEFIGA

SK-MEL-5 = experiment: Antiproliferative activity against human SK-MEL-5 cells assessed as cell growth inhibition measured after 48 hrs by SRB assay; type: functional, cell-based; settings: SK-MEL-5, 48 h
[6] = molecular target: T2, Mitogen-activated protein kinase 10 (Homo sapiens, UniProt P53779); experiment: Inhibition of JNK3 (unknown origin) at 10 uM incubated for 40 mins in presence of Mg/ATP mix by [gamma p33]-ATP based scintillation counting method relative to control
T2 sequence (P53779 whole entry): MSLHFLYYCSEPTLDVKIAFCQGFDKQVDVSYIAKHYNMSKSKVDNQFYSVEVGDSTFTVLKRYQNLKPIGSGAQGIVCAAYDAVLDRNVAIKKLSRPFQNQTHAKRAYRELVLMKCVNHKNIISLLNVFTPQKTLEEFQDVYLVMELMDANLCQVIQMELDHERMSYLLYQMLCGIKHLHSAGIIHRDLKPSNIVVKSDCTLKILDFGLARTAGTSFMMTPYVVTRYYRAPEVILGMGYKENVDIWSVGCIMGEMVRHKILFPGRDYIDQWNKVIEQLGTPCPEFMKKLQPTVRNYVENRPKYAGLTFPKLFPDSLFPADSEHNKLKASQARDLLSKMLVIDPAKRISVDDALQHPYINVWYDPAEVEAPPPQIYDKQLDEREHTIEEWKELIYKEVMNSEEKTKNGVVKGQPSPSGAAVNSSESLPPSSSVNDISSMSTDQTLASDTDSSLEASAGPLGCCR

[7] = molecular target: T3, Receptor tyrosine-protein kinase erbB-4 (Homo sapiens, UniProt Q15303); experiment: Inhibition of ErbB4 in human T47D cells assessed as suppression of neuregulin 1-induced autophosphorylation incubated for 90 mins by sandwich ELISA; type: cell-based
T3 sequence (Q15303 whole entry): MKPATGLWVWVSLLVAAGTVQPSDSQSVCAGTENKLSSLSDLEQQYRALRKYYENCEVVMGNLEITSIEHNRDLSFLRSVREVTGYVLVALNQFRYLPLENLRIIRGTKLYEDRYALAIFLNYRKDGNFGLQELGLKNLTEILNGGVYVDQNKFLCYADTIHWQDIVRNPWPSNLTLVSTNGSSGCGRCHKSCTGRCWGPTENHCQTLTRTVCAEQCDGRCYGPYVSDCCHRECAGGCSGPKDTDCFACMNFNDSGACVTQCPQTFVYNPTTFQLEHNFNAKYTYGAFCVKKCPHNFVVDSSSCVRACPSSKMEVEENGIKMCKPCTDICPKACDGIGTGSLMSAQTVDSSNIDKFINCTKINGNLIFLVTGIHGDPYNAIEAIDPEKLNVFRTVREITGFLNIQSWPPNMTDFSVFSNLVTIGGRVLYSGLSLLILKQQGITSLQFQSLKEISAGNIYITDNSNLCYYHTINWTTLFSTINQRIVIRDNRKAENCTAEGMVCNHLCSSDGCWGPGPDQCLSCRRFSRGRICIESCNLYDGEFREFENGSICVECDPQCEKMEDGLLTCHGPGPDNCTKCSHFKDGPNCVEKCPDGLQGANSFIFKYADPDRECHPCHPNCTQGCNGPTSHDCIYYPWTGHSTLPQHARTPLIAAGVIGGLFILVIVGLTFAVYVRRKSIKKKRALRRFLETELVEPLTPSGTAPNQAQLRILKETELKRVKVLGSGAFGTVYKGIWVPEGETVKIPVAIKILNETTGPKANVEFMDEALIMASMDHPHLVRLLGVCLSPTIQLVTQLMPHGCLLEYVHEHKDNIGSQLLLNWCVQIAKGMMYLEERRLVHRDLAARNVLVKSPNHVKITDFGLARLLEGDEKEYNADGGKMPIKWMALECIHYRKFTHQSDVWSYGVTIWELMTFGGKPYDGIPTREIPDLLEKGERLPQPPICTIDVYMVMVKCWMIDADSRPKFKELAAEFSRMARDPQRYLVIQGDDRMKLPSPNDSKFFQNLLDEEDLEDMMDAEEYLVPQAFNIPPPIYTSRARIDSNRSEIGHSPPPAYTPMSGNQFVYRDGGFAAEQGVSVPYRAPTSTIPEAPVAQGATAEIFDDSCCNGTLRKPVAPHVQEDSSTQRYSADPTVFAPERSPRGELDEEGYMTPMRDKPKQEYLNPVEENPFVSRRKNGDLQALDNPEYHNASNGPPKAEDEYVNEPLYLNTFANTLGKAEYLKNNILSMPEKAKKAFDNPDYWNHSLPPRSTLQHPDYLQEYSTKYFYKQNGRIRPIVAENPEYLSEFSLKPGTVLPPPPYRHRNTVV

[8] = molecular target: Receptor tyrosine-protein kinase erbB-2 (Homo sapiens) (UniProt P04626); experiment: Inhibition of ErbB2 (unknown origin) at 10 uM incubated for 40 mins in presence of Mg/ATP mix by [gamma p33]-ATP based scintillation counting method relative to control
[9] = molecular target: T2, Mitogen-activated protein kinase 10; experiment: Inhibition of JNK3 (unknown origin) incubated for 40 mins in presence of Mg/ATP mix by [gamma p33]-ATP based scintillation counting method
[10] = molecular target: Serine/threonine-protein kinase B-raf (Homo sapiens, UniProt P15056); experiment: Inhibition of wild type B-RAF (unknown origin) at 10 uM incubated for 40 mins in presence of Mg/ATP mix by [gamma p33]-ATP based scintillation counting method relative to control
Homo sapiens [11] = organism: Homo sapiens; experiment: Selectivity ratio of IC50 for inhibition of EGFR (unknown origin) to IC50 for inhibition of ErbB4 (unknown origin); settings: dose 10.0 µM, time 40.0 min
Homo sapiens [12] = organism: Homo sapiens; experiment: Selectivity ratio of IC50 for inhibition of JAK3 (unknown origin) to IC50 for inhibition of ErbB4 (unknown origin); settings: dose 10.0 µM, time 40.0 min
UO-31 [13] = experiment: Antiproliferative activity against human UO-31 cells assessed as cell growth inhibition measured after 48 hrs by SRB assay; type: functional, cell-based; settings: UO-31, 48 h
MDA-MB-468 = experiment: Antiproliferative activity against human MDA-MB-468 cells assessed as cell growth inhibition at 10 uM measured after 48 hrs by SRB assay relative to control; type: functional
[14] = molecular target: T1, Epidermal growth factor receptor; experiment: Inhibition of EGFR (unknown origin) at 10 uM incubated for 40 mins in presence of Mg/ATP mix by [gamma p33]-ATP based scintillation counting method relative to control
[15] = molecular target: T3, Receptor tyrosine-protein kinase erbB-4; experiment: Inhibition of ErbB4 (unknown origin) at 10 uM incubated for 40 mins in presence of Mg/ATP mix by [gamma p33]-ATP based scintillation counting method relative to control
MOLT-4 = experiment: Antiproliferative activity against human MOLT-4 cells assessed as cell growth inhibition measured after 48 hrs by SRB assay; type: functional, cell-based; settings: MOLT-4, 48 h
Cytochrome P450 2D6 = Cytochrome P450 2D6 (Homo sapiens, UniProt P10635); experiment: Inhibition of CYP2D6 (unknown origin) using EOMCC as a substrate incubated for 20 mins by fluorescence based analysis; type: ADME
Chain of Cytochrome P450 2D6 (P10635 whole entry): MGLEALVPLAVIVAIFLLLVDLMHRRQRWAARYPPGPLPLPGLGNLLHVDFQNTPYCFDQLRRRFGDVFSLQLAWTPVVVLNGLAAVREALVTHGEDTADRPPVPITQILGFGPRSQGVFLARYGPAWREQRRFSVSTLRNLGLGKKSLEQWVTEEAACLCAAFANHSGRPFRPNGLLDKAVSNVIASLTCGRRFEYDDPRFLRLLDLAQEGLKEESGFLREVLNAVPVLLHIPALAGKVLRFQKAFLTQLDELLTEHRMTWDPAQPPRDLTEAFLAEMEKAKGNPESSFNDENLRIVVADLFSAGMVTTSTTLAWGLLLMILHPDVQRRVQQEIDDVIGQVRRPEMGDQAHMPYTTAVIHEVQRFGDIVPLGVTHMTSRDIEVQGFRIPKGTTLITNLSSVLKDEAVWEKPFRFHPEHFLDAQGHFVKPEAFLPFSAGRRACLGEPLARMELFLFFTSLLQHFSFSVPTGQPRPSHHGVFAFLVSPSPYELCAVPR

Homo sapiens [16] = organism: Homo sapiens; experiment: Selectivity index, ratio of IC50 for inhibition of BRAF V600E mutant (unknown origin) to IC50 for inhibition of ErbB4 (unknown origin); settings: dose 10.0 µM, time 40.0 min
Homo sapiens [17] = organism: Homo sapiens; experiment: Selectivity ratio of IC50 for inhibition of JNK3 (unknown origin) to IC50 for inhibition of ErbB4 (unknown origin); settings: dose 10.0 µM, time 40.0 min
Cytochrome P450 3A4 = Cytochrome P450 3A4 (Homo sapiens, UniProt P08684); experiment: Inhibition of CYP3A4 (unknown origin) using BOMCC as a substrate incubated for 20 mins by fluorescence based analysis; type: ADME
NCI-H522 = experiment: Antiproliferative activity against human NCI-H522 cells assessed as cell growth inhibition measured after 48 hrs by SRB assay; type: functional, cell-based; settings: NCI-H522, 48 h
[18] = molecular target: T3, Receptor tyrosine-protein kinase erbB-4; experiment: Inhibition of ErbB4 expressed in human T47D cells at antiproliferative IC50 in presence of -neuregulin 1 incubated for 90 mins by sandwich ELISA relative to control; type: cell-based
CYP3A4 = CYP3A4 (Homo sapiens, UniProt P08684); experiment: Potency index, ratio of test compound IC50 to ketoconazole IC50 for inhibition of CYP3A4 (unknown origin) using BOMCC as a substrate incubated for 20 mins by fluorescence based analysis; type: ADME; settings: probe BOMCC
HCC 2998 [19] = experiment: Antiproliferative activity against human HCC 2998 cells assessed as cell growth inhibition at 10 uM measured after 48 hrs by SRB assay relative to control; type: functional
hERG (KCNH2) = hERG (KCNH2) (Homo sapiens, UniProt Q12809); experiment: Safety index, ratio of test compound IC50 to E-4031 IC50 for inhibition of human ERG incubated for 3 hrs by competitive fluorescence tracer binding based assay; settings: read-out: Ratio IC50
[20] = Cytotoxicity against human WI-38 cells assessed as cell growth inhibition at 10 uM measured after 48 hrs by SRB assay relative to control; type: cell-based
U-251 [21] = experiment: Antiproliferative activity against human U-251 cells assessed as cell growth inhibition at 10 uM measured after 48 hrs by SRB assay relative to control; type: functional
HCC 2998 [22] = experiment: Antiproliferative activity against human HCC 2998 cells assessed as cell growth inhibition measured after 48 hrs by SRB assay; type: functional, cell-based; settings: HCC 2998, 48 h
UO-31 [23] = experiment: Antiproliferative activity against human UO-31 cells assessed as cell growth inhibition at 10 uM measured after 48 hrs by SRB assay relative to control; type: functional
[24] = molecular target: Tyrosine-protein kinase JAK3 (Homo sapiens, UniProt P52333); experiment: Inhibition of JAK3 (unknown origin) incubated for 40 mins in presence of Mg/ATP mix by [gamma p33]-ATP based scintillation counting method

Chain of Vascular endothelial growth factor receptor 2 (P35968 whole entry): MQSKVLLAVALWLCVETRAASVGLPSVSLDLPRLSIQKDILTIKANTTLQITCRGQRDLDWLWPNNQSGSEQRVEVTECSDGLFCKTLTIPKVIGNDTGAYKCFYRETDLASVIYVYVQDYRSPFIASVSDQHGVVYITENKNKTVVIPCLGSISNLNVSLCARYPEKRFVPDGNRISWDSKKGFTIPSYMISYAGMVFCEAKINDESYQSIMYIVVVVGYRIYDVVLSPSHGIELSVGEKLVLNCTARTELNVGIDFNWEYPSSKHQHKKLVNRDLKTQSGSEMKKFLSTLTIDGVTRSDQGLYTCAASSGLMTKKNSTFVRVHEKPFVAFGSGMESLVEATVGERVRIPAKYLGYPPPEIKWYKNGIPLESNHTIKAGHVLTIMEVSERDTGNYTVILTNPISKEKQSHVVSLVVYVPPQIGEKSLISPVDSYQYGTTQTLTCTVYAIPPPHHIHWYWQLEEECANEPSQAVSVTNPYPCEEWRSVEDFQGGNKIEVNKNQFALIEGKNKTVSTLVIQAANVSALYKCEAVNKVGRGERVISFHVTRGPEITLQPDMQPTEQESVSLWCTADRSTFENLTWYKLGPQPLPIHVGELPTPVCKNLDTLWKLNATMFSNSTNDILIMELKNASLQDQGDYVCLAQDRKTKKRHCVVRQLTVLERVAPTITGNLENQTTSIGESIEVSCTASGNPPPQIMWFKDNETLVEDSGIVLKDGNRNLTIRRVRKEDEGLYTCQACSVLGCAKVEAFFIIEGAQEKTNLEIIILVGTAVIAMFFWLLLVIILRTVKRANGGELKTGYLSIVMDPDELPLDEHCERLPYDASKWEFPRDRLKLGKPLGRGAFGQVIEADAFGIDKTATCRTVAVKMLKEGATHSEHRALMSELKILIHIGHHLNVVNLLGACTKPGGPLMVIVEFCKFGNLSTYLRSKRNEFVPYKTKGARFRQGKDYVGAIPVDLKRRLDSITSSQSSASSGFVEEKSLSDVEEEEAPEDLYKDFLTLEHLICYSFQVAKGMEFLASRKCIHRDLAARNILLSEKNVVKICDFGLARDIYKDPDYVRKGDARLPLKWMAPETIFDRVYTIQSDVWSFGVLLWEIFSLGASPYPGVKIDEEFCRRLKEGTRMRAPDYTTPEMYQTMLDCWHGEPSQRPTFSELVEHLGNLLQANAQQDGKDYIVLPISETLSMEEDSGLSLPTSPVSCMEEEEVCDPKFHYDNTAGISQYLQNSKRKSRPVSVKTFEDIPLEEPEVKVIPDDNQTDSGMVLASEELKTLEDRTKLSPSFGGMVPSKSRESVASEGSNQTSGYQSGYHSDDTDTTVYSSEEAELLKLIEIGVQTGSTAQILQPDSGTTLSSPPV

In the case of CS(=O)(=O)c1nccc(-c2c(-c3cccc(OCc4ccccc4)c3)nc3sccn23)n1, the inhibition [1] is reported as 24.8%, the IC50 [2] is reported as 13.2 µM and the IC50 (T47D) is reported as 4.08 µM. It also gave an IC50 (U-251 [3]) of 6.08 µM, an IC50 (DU-145) of 1.67 µM and an inhibition [4] of 3.33%. The IC50 [5] was 9.92 µM, the IC50 (SK-MEL-5) was 0.51 µM and the inhibition [6] was 66%. The IC50 [7] was 0.0033 µM, the inhibition [8] was 2.75% and the IC50 [9] was 5.2 µM. For the same compound, the inhibition [10] was 34.3%, the Ratio IC50 (Homo sapiens [11]) was 651 and the Ratio IC50 (Homo sapiens [12]) was 548. For the same compound, the IC50 (UO-31 [13]) was 1.55 µM, the inhibition at 10 µM (MDA-MB-468) was 165% and the inhibition [14] was 63.6%. It also gave an inhibition [15] of 96.1%, an IC50 (MOLT-4) of 1.02 µM and an IC50 (Cytochrome P450 2D6) of over 90 µM. It also gave a Ratio IC50 (Homo sapiens [16]) of 866, a Ratio IC50 (Homo sapiens [17]) of 341 and an IC50 (Cytochrome P450 3A4) of 17.8 µM. For the same compound, the IC50 (NCI-H522) was 4.91 µM, the inhibition [18] was over 50% and the selectivity ratio at 20 min (CYP3A4) was 7480. It also gave an inhibition at 10 µM (HCC 2998 [19]) of 67.6%, a selectivity ratio at 3 h (hERG (KCNH2)) of 513 and an inhibition at 48 h, 10 µM [20] of 56.4%. It also gave an inhibition at 10 µM (U-251 [21]) of 10.9%, an IC50 (HCC 2998 [22]) of 1.78 µM and an inhibition at 10 µM (UO-31 [23]) of 96.3%. The IC50 [24] was 8.35 µM.
